For one series, the target named is T1, ROS 17/2.8 cells (Rattus norvegicus, UniProt P25961).
T1 construct: ROS 17/2.8 cells are rat osteosarcoma cells and express the endogenous PTHR; host or cells: ROS 17/2.8 cells
T1 sequence (P25961 27-591): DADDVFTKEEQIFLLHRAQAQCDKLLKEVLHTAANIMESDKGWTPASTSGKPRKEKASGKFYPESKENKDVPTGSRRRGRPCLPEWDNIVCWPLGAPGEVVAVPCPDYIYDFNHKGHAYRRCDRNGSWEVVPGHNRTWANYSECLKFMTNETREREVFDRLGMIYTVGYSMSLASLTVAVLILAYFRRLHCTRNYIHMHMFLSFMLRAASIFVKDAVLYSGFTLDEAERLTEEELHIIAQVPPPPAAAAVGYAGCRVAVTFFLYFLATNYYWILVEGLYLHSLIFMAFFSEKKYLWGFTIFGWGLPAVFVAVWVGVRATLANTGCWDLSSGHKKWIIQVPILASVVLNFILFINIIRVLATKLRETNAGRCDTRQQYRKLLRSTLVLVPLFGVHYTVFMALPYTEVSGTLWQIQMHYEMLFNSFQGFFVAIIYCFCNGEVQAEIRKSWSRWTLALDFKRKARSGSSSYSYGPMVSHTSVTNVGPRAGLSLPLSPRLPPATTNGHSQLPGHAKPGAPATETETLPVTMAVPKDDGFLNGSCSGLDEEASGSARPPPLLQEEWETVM
The conditions noted are these: position-20 substitutions in PTH(1-31)NH2; cited from earlier work.

The target of a further series is T2, PTHR-delNt (Homo sapiens, UniProt Q03431, DEL24-181).
T2 construct: expressed in transfected cells; host or cells: COS-7 cells, transient co-transfection; membranes prepared
T2 sequence (Q03431 with tags, fused parts or gaps DEL24-181): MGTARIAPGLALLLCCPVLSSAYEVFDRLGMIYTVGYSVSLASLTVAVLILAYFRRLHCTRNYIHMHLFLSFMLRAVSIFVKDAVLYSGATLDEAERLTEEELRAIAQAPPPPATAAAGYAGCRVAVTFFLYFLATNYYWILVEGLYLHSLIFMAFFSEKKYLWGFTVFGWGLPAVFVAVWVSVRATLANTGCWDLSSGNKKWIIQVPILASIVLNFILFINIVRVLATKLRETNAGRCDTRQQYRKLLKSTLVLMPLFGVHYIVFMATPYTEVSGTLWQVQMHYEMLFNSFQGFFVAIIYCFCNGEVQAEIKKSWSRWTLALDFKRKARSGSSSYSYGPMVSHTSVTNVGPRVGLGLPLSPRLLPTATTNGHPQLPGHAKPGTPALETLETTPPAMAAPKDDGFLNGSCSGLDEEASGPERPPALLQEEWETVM
Description: Competition binding in COS-7 cell membranes with 125I-[Aib1,3,M]PTH(1-15)NH2 tracer. As to conditions: hPTH(1-31)NH2 analogs; COS-7 membranes cotransfected with negative-dominant Gαs; read-out: PTHR-delNT (COS-7) IC50. Summed up:
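IC50 from four-parameter logistic fitting of specific tracer binding, extrapolated to maximal [Aib1,3,M]PTH(1-15)NH2 inhibition when displacement was incomplete. Competitor peptides (3×10^−9 to 1×10^−5 M) and 125I-[Aib1,3,M]PTH(1-15)NH2 were incubated 90 min, 21 °C, with membranes (20 µg/well) of COS-7 cells expressing N-terminally truncated (Δ24–181) human PTHR with dominant-negative Gαs; 1×10^−6 M unlabeled tracer peptide defined non-specific binding.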

Series [1] in a line: Circular dichroism spectroscopy, helical residues per peptide chain. It is filed as physicochemical. As to conditions: hPTH(1-31)NH2 analogs; calculated from [θ]222. In a few lines:
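Helical residue count per peptide chain derived from 222 nm mean residue ellipticity via −[θ]222×30/28,000. Spectra taken at 20 °C as four-scan averages, with concentrations verified by absorbance at 280 nm (single tryptophan, 5700 M^−1).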

Broadly, the IC50 is the concentration that inhibits the measured activity by half.

For `CC[C@H](C)[C@H](NC(=O)[C@H](CCC(=O)O)NC(=O)[C@H](CO)NC(=O)[C@@H](NC(=O)[C@@H](N)CO)C(C)C)C(=O)N[C@@H](CCC(N)=O)C(=O)N[C@@H](CC(C)C)C(=O)N[C@@H](CCSC)C(=O)N[C@@H](Cc1c[nH]cn1)C(=O)N[C@@H](CC(N)=O)C(=O)N[C@@H](CC(C)C)C(=O)NCC(=O)N[C@@H](CCCCN)C(=O)N[C@@H](Cc1c[nH]cn1)C(=O)N[C@@H](CC(C)C)C(=O)N[C@@H](CC(N)=O)C(=O)N[C@@H](CO)C(=O)N[C@@H](CCSC)C(=O)N[C@@H](CCC(=O)O)C(=O)N[C@@H](CCCNC(N)=O)C(=O)N[C@H](C(=O)N[C@@H](CCC(=O)O)C(=O)N[C@@H](Cc1c[nH]c2ccccc12)C(=O)N[C@@H](CC(C)C)C(=O)N[C@@H](CCCNC(=N)N)C(=O)N[C@@H](CCCCN)C(=O)N[C@@H](CCCCN)C(=O)N[C@@H](CC(C)C)C(=O)N[C@@H](CCC(N)=O)C(=O)N[C@@H](CC(=O)O)C(=O)N[C@H](C(N)=O)C(C)C)C(C)C` [Arg^20→Cit], the “reduction of cAMP-stimulating potency” value at ROS 17/2.8 cells is 8 fold. In addition, the IC50 at PTHR-delNt was 10.6 µM. The CD helical residues in series [1] is listed as 9.

The values are drawn from US8143374B2, “Polypeptide derivatives of parathyroid hormone (PTH)” (The General Hospital Corporation, priority 2006, dated 2012).
